Measured values taken from patent US9227971B2, “Pyrazolo[1,5-a]pyrimidine compounds as mTOR inhibitors” (Merck Sharp & Dohme Corp., priority 2010, dated 2016).
Read-outs that look alike come from different tables or passages of the source.

How the values were obtained:
[1] = system: phosphorylated 4E-BP1 Thr37/46 (p4E-BP1 Thr37/46), mTORC1 activity, PC3 cells; experiment: mTOR target engagement assay, immunofluorescent cell-based, p4E-BP1 Thr37/46 readout (mTORC1 activity); conditions: Homo sapiens, read-out: p4E-BP1 Thr37/46 IC50
Summary of the method: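 Seed PC3 cells overnight; treat with compound dilutions for ninety minutes at 37° C; fix with glyoxal and block; stain with anti-p4E-BP1 Thr37/46 overnight at 4° C, then fluorescent secondary; read fluorescence and fit IC50 against DMSO-only controls.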

[2] = system: phosphorylated AKT Ser473 (pAKT S473), mTORC2 activity, PC3 cells; experiment: mTOR target engagement assay, immunofluorescent cell-based, pAKT S473 readout (mTORC2 activity); conditions: Homo sapiens
Summary of the method: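 After blocking, cells were stained overnight at 4 °C with anti-pAKT S473 antibody, then a fluorescent secondary; inhibition was read as reduced fluorescence intensity.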

[3] = PC-3, PC3 cells, compound treatment ninety minutes at 37° C.

| Structure (SMILES) | IC50 ([1]; PC-3, Table 3-1, PC3 cells) [nM] | IC50 ([2]; PC-3, Table 3-1, PC3 cells) [nM] | IC50 [1, 3] [nM] | IC50 [2, 3] [nM] | further results |
| --- | --- | --- | --- | --- | --- |
| CC(C)(O)c1ncc(-c2cnn3c(N)c(S(C)(=O)=O)c([C@@H]4C[C@H]5CC[C@@H](C4)N5C(=O)c4nnc[nH]4)nc23)cc1Cl [Compound 3.158, ((1R,3s,5S)-3-(7-amino-3-(5-chloro-6-(2-hydroxypropan-2-yl)pyridin-3-yl)-6-(methylsulfonyl)pyrazolo[1,5-a]pyrimidin-5-yl)-8-azabicyclo[3.2.1]octan-8-yl)(4H-1,2,4-triazol-3-yl)methanone] | 1 to 100 | 1 to 100 |  |  |  |
| C=C(C)c1c([C@@H]2C[C@H]3CC[C@@H](C2)N3C(=O)CO)nc2c(-c3ccc(-c4ncc[nH]4)nc3)cnn2c1N [Compound 6.7, 1-((1R,3s,5S)-3-(3-(6-(1H-imidazol-2-yl)pyridin-3-yl)-7-amino-6-(prop-1-en-2-yl)pyrazolo[1,5-a]pyrimidin-5-yl)-8-azabicyclo[3.2.1]octan-8-yl)-2-hydroxyethanone] |  |  |  |  | IC50 ([1]; PC-3, Table 6-1, PC3 cells): 1 to 100 nM; IC50 ([2]; PC-3, Table 6-1, PC3 cells): 1 to 100 nM |
| CS(=O)(=O)c1c([C@@H]2C[C@H]3CC[C@@H](C2)N3C(=O)C(O)C(F)(F)F)nc2c(-c3ccc(-c4ccccc4)nc3)cnn2c1N (stereo partly drawn) [Compound 3.15, 1-((1R,3s,5S)-3-(7-amino-6-(methylsulfonyl)-3-(6-phenylpyridin-3-yl)pyrazolo[1,5-a]pyrimidin-5-yl)-8-azabicyclo[3.2.1]octan-8-yl)-3,3,3-trifluoro-2-hydroxypropan-1-one] | 1000 to 10000 | 1000 to 10000 |  |  |  |
| CS(=O)(=O)c1c([C@@H]2C[C@H]3CC[C@@H](C2)N3C(=O)c2ccn[nH]2)nc2c(-c3ccc(-c4ccccc4)nc3)cnn2c1N [Compound 3.74, ((1R,3s,5S)-3-(7-amino-6-(methylsulfonyl)-3-(6-phenylpyridin-3-yl)pyrazolo[1,5-a]pyrimidin-5-yl)-8-azabicyclo[3.2.1]octan-8-yl)(1H-pyrazol-5-yl)methanone] | 1 to 100 | 1 to 100 |  |  |  |
| CS(=O)(=O)c1c([C@@H]2C[C@H]3CC[C@@H](C2)N3C(=O)c2nnc[nH]2)nc2c(-c3ccc(-c4nc5c(s4)CCC5)nc3)cnn2c1N [Compound 3.193, ((1R,3s,5)S-3-(7-amino-3-(6-(5,6-dihydro-4H-cyclopenta[d]thiazol-2-yl)pyridin-3-yl)-6-(methylsulfonyl)pyrazolo[1,5-a]pyrimidin-5-yl)-8-azabicyclo[3.2.1]octan-8-yl)(4H-1,2,4-triazol-3-yl)methanone] | 100 to 1000 | 100 to 1000 |  |  |  |
| CS(=O)(=O)c1c([C@@H]2C[C@H]3CC[C@@H](C2)N3C(=O)c2nnc[nH]2)nc2c(-c3ccc(-c4ncccc4F)nc3)cnn2c1N [Compound 3.48, ((1R,3s,5S)-3-(7-amino-3-(3′-fluoro-2,2′-bipyridin-5-yl)-6-(methylsulfonyl)pyrazolo[1,5-a]pyrimidin-5-yl)-8-azabicyclo[3.2.1]octan-8-yl)(4H-1,2,4-triazol-3-yl)methanone] | 1 to 100 | 1 to 100 |  |  |  |
| CC(=O)c1c([C@@H]2C[C@H]3CC[C@@H](C2)N3C(=O)CO)nc2c(-c3cnn(-c4ccccn4)c3)cnn2c1N [Compound 1.1.162, 1-((1R,3s,5S)-3-(6-acetyl-7-amino-3-(1-(pyridin-2-yl)-1H-pyrazol-4-yl)pyrazolo[1,5-a]pyrimidin-5-yl)-8-azabicyclo[3.2.1]octan-8-yl)-2-hydroxyethanone] |  |  | 100 to 1000 | 100 to 1000 |  |
| COCCOCC(=O)N1[C@@H]2CC[C@H]1C[C@H](c1nc3c(-c4ccc(-c5ccccc5)nc4)cnn3c(N)c1S(C)(=O)=O)C2 [Compound 3.72, 1-((1R,3s,5S)-3-(7-amino-6-(methylsulfonyl)-3-(6-phenylpyridin-3-yl)pyrazolo[1,5-a]pyrimidin-5-yl)-8-azabicyclo[3.2.1]octan-8-yl)-2-(2-methoxyethoxy)ethanone] | 1000 to 10000 | 1000 to 10000 |  |  |  |
| NC(=O)c1c([C@@H]2C[C@H]3CC[C@@H](C2)N3C(=O)c2nc[nH]n2)nc2c(-c3ccc(-c4ccccc4)nc3)cnn2c1N [Compound 1.1.25, 5-((1R,3s,5S)-8-(1H-1,2,4-triazole-3-carbonyl)-8-azabicyclo[3.2.1]octan-3-yl)-7-amino-3-(6-phenylpyridin-3-yl)pyrazolo[1,5-a]pyrimidine-6-carboxamide] |  |  | 1 to 100 | 1 to 100 |  |
| CC(=O)c1c([C@@H]2C[C@H]3CC[C@@H](C2)N3C(=O)c2nnc[nH]2)nc2c(-c3ccc(-c4cccc(F)c4)nc3)cnn2c1N [Compound 1.1.103, 1-(5-((1R,3r,5S)-8-(4H-1,2,4-triazole-3-carbonyl)-8-azabicyclo[3.2.1]octan-3-yl)-7-amino-3-(6-(3-fluorophenyl)pyridin-3-yl)pyrazolo[1,5-a]pyrimidin-6-yl)ethanone] |  |  | 1 to 100 | 1 to 100 |  |
| CC(=O)c1c([C@@H]2C[C@H]3CC[C@@H](C2)N3C(=O)C2CCS(=O)(=O)N2)nc2c(-c3ccc(-c4ccccc4)nc3)cnn2c1N (mixture of isomers) [Compound 1.1.4, (EXO)-3-[6-ACETYL-7-AMINO-3-(6-PHENYL-3-PYRIDINYL)PYRAZOLO[1,5-a]PYRIMIDIN-5-YL]-8-[(1,1-DIOXIDO-3-ISOTHIAZOLIDINYL)CARBONYL]-8-AZABICYCLO[3.2.1]OCTANE (MIX. OF 2 DIASTEREOMERS)] |  |  | 100 to 1000 | 100 to 1000 |  |
| CS(=O)(=O)c1c([C@@H]2C[C@H]3CC[C@@H](C2)N3C(=O)c2coc(=O)[nH]2)nc2c(-c3ccc(-c4ccccc4)nc3)cnn2c1N [Compound 3.138, 4-((1R,3s,5S)-3-(7-amino-6-(methylsulfonyl)-3-(6-phenylpyridin-3-yl)pyrazolo[1,5-a]pyrimidin-5-yl)-8-azabicyclo[3.2.1]octane-8-carbonyl)oxazol-2(3H)-one] | 100 to 1000 | 100 to 1000 |  |  |  |
| Nc1c(C2CC2)c([C@@H]2C[C@H]3CC[C@@H](C2)N3S(=O)(=O)c2nnc[nH]2)nc2c(-c3ccc(-c4ccccc4)nc3)cnn12 [Compound 4.3, 5-((1R,3a,5S)-8-(4H-1,2,4-triazol-3-ylsulfonyl)-8-azabicyclo[3.2.1]octan-3-yl)-6-cyclopropyl-3-(6-phenylpyridin-3-yl)pyrazolo[1,5-a]pyrimidin-7-amine] |  |  | 1000 to 10000 | 1000 to 10000 |  |
| COc1ccc2ncc(-c3cnn4c(N)c(C5CC5)c([C@@H]5C[C@H]6CC[C@@H](C5)N6C(=O)c5nnc[nH]5)nc34)cc2c1 [Compound 4.24, ((1R,3s,5S)-3-(7-amino-6-cyclopropyl-3-(6-methoxyquinolin-3-yl)pyrazolo[1,5-a]pyrimidin-5-yl)-8-azabicyclo[3.2.1]octan-8-yl)(4H-1,2,4-triazol-3-yl)methanone] |  |  | 100 to 1000 | 100 to 1000 |  |
| CS(=O)(=O)c1c([C@@H]2C[C@H]3CC[C@@H](C2)N3c2ncncc2N)nc2c(-c3ccc(-c4ccccc4)nc3)cnn2c1N [Compound 8.64, 5-((1R,3s,5S)-8-(5-aminopyrimidin-4-yl)-8-azabicyclo[3.2.1]octan-3-yl)-6-(methylsulfonyl)-3-(6-phenylpyridin-3-yl)pyrazolo[1,5-a]pyrimidin-7-amine] |  |  |  |  | IC50 ([1]; PC-3, PC3 cells): 1000 to 10000 nM; IC50 ([2]; PC-3, PC3 cells): 100 to 1000 nM |
| CC(=O)c1c([C@@H]2C[C@H]3CC[C@@H](C2)N3C(=O)c2nnc(C)[nH]2)nc2c(-c3ccc(-c4ccc(F)cc4F)nc3)cnn2c1N [Compound 1.1.165, 1-(7-amino-3-(6-(2,4-difluorophenyl)pyridin-3-yl)-5-((1R,3s,5S)-8-(5-methyl-4H-1,2,4-triazole-3-carbonyl)-8-azabicyclo[3.2.1]octan-3-yl)pyrazolo[1,5-a]pyrimidin-6-yl)ethanone] |  |  | 1 to 100 | 1 to 100 |  |
| CNC(=O)N1[C@@H]2CC[C@H]1C[C@H](c1nc3c(-c4ccc(-c5ccccc5)nc4)cnn3c(N)c1S(C)(=O)=O)C2 [Compound 3.30, (1R,3s,5S)-3-(7-amino-6-(methylsulfonyl)-3-(6-phenylpyridin-3-yl)pyrazolo[1,5-a]pyrimidin-5-yl)-N-methyl-8-azabicyclo[3.2.1]octane-8-carboxamide] | 100 to 1000 | 100 to 1000 |  |  |  |
| [2H]C([2H])([2H])n1ccc(-c2ccc(-c3cnn4c(N)c(C(C)=O)c([C@@H]5C[C@H]6CC[C@@H](C5)N6C(=O)CO)nc34)cn2)n1 [Compound 1.1.84, 1-((1R,3s,5S)-3-(6-acetyl-7-amino-3-(6-(1-methyl-(D3)-1H-pyrazol-3-yl)pyridin-3-yl)pyrazolo[1,5-a]pyrimidin-5-yl)-8-azabicyclo[3.2.1]octan-8-yl)-2-hydroxyethanone] |  |  | 1 to 100 | 1 to 100 |  |
| CS(=O)(=O)c1c([C@@H]2C[C@H]3CC[C@@H](C2)N3C(=O)c2nnc[nH]2)nc2c(-c3ccc(C4(O)COC4)nc3)cnn2c1N [Compound 7.48, ((1R,3s,5S)-3-(7-amino-3-(6-(3-hydroxyoxetan-3-yl)pyridin-3-yl)-6-(methylsulfonyl)pyrazolo [1,5-a]pyrimidin-5-yl)-8-azabicyclo[3.2.1]octan-8-yl)(4H-1,2,4-triazol-3-yl)methanone] |  |  |  |  | IC50 ([1]; PC-3, Table 7-8, PC3 cells): 1000 to 10000 nM; IC50 ([2]; PC-3, Table 7-8, PC3 cells): 1000 to 10000 nM |
